Experimental data as given in paper PMC12038855, “Synthesis of 4-azido sialic acid for testing against Siglec-7 and in metabolic oligosaccharide engineering” (RSC Chemical Biology, 2025).

Molecular target: T1, Siglec-7 (Homo sapiens, UniProt Q9Y286)
T1 construct: gene SIGLEC7; recombinant Siglec-7-Fc soluble protein
Experiment: concentration-independent native mass spectrometry (COIN-CaR-ESI-MS)
Format: binding

T1 sequence (Q9Y286 19-353 limits assumed): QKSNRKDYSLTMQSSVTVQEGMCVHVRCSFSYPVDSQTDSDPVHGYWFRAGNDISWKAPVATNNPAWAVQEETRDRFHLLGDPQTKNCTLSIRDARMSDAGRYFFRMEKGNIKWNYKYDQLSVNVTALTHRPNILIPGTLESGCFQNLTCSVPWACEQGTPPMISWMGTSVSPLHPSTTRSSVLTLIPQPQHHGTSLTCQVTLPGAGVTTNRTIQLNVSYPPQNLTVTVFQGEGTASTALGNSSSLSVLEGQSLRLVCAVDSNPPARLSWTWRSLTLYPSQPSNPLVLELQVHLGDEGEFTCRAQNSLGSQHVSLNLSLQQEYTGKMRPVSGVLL

| Compound | Kd |
| --- | --- |
| CC(=O)N[C@H]1[C@@H](OCCNC(=O)OCc2ccccc2)O[C@H](CO)[C@H](O)[C@@H]1O[C@@H]1O[C@H](CO)[C@H](O)[C@H](O[C@]2(C(=O)O)C[C@H](N=[N+]=[N-])[C@@H](NC(C)=O)[C@H]([C@H](O)[C@H](O)CO)O2)[C@H]1O [compound 13, 2-(N-benzyloxycarbonylamino)ethyl 5-acetamido-4-azido-3,4,5 trideoxy-D-glycero-α-D-galacto-nonulopyranosyl-(2–3)-[β-D-galactopyranosyl]-(1–3)-2 acetamido-2-deoxy-α-D-galactopyranoside] | 115 ± 44 µM |
| CC(=O)N[C@H]1[C@@H](OCCNC(=O)OCc2ccccc2)O[C@H](CO)[C@H](O)[C@@H]1O[C@@H]1O[C@H](CO)[C@H](O)[C@H](O[C@]2(C(=O)O)C[C@H](O)[C@@H](NC(C)=O)[C@H]([C@H](O)[C@H](O)CO)O2)[C@H]1O [compound 14, 2-(N-benzyloxycarbonylamino)ethyl 5 acetamido-3,5-dideoxy-D-glycero-α-D-galacto-nonulopyranosyl-(2–3)-[(β-D-galactopyranosyl)]-(1–3)-2-acetamido-2-deoxy-α-D-galactopyranoside] | 88 ± 31 µM |
